From US20070191367A1, “3-SPIROINDOLIN-2-ONE DERIVATIVES, PREPARATION AND THERAPEUTIC USE THEREOF” (SANOFI-AVENTIS, priority 2004, published 2007)

Biological target: T1, recombinant human vasopressin V2 receptors (Homo sapiens, UniProt P30518)
T1 construct: expressed in transfected cells; host or cells: CHO cell line (plasma membranes)
Assay: In vitro binding assay, [H3]-AVP displacement at vasopressin V2 receptors
Conditions: plasma membranes from tissues or CHO cell line; 3.5 nM [H3]-AVP; 45 minutes at 25° C.; read-out: IC50 (concentration of product that inhibits 50% of the specific binding)
Protocol: The affinity of the compounds of the invention for vasopressin V2 receptors was measured in in vitro binding assays, as described in J. Pharmacol. Exp. Ther., (2002), 300, pp. 1122-1130.
Plasma membranes (approximately 20 μg/ml) originating from tissues or the CHO cell line expressing recombinant human vasopressin V2 receptors are incubated for 45 minutes at 25° C. in 200 μl of TRIS-HCl buffer (50 mM; pH 8.2) containing 2 mM of MgCl2, 1 mM of EDTA, 0.1% of BSA, 1 mg/ml of bacitracin and 3.5 nM of [H^3]-AVP. The reaction is stopped by filtration and washing over GF/B filters. The nonspecific binding is determined in the presence of 1 μM of AVP. The compounds of the invention, dissolved beforehand at the concentration of 10^−2 M in DMSO, are tested in a dilution range.
For each concentration, the results are expressed as percentage inhibition of specific binding. An IC50 (concentration of product that inhibits 50% of the specific binding) is determined for each of the products using the “RS1 binding” program (BBN Domain, Cambridge, Mass).

T1 sequence (P30518 whole entry): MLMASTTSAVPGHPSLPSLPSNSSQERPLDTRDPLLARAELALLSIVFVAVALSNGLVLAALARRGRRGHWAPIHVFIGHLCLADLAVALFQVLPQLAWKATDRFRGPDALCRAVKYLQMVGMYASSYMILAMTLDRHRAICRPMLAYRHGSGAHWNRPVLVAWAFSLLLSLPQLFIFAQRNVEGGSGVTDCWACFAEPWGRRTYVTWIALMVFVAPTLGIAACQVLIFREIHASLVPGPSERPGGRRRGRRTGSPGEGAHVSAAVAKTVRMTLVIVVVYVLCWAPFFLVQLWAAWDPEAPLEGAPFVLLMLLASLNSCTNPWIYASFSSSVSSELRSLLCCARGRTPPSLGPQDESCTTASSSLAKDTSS

IC50: ~7.3 nM
Structure (SMILES): CCOc1ccc2c(c1)C1(CCC(OCC(=O)N3CCOCC3)CC1)C(=O)N2S(=O)(=O)c1ccc(C(=O)NC(C)(C)C)cc1OC (stereo not shown) [Example]
